Laboratory results reported in patent US20050239656A1, “Pyridine compounds or salts thereof and herbicides containing the same” (priority 2002, published 2005).

The molecules below were run on barnyardgrass (assay: Test Example 1: foliage treatment, upland pot test). Settings: active ingredient 500 g/ha, observed 18th to 23rd day, 0 = non-treated, 100 = complete kill.
Type: in vivo, Echinochloa crus-galli L.
Summary of the method: (§1)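 Upland pot test, foliar. Soybean 0.1–0.4 / wheat 1.3–2.4 / rice 1.2–2.6 / barnyardgrass 1.3–2.8 leaf stage at spraying; 500 L/ha carrier, 0.1% (v/v) spreader. Visual % control, 0 untreated to 100 dead, days 18–23.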
With `CC(Oc1ccc(F)cc1)C(=O)N(C)C(c1cnccc1C(F)(F)F)C(C)C` (mixture of isomers) [I-133] the “Growth controlling degree (%) Barnyardgrass” value was 70%.

What follows are molecules tested on crabgrass (assay: Test Example 1: foliage treatment, upland pot test). Settings: active ingredient 500 g/ha, observed 18th to 23rd day, 0 = non-treated, 100 = complete kill.
Type: in vivo, Digitaria sanguinalis L.
`CC(Oc1ccc(F)cc1)C(=O)N(C)C(c1cnccc1C(F)(F)F)C(C)C` (mixture of isomers) [I-133] was tested, and the “Growth controlling degree (%) Crabgrass” value was 70%.

The molecules below were run on green foxtail (assay: Test Example 1: foliage treatment, upland pot test). Settings: active ingredient 500 g/ha, observed 18th to 23rd day, 0 = non-treated, 100 = complete kill.
Type: in vivo, Setaria viridis L.
With `CC(Oc1ccc(F)cc1)C(=O)N(C)C(c1cnccc1C(F)(F)F)C(C)C` (mixture of isomers) [I-133] the “Growth controlling degree (%) Green foxtail” value was 70%.

These molecules were tested on redroot pigweed (assay: Test Example 1: foliage treatment, upland pot test). Settings: active ingredient 500 g/ha, observed 18th to 23rd day, 0 = non-treated, 100 = complete kill.
Type: in vivo, Amaranthus retroflexus L.
For `CC(Oc1ccc(F)cc1)C(=O)N(C)C(c1cnccc1C(F)(F)F)C(C)C` (mixture of isomers) [I-133], the “Growth controlling degree (%) Redroot pigweed” value was 70%.

These molecules were tested on prickly sida (assay: Test Example 1: foliage treatment, upland pot test). Settings: active ingredient 500 g/ha, observed 18th to 23rd day, 0 = non-treated, 100 = complete kill.
Type: in vivo, Sida spinosa L.
With `CC(Oc1ccc(F)cc1)C(=O)N(C)C(c1cnccc1C(F)(F)F)C(C)C` (mixture of isomers) [I-133] the “Growth controlling degree (%) Prickly sida” value was 80%.

These molecules were tested on velvetleaf (assay: Test Example 1: foliage treatment, upland pot test). Settings: active ingredient 500 g/ha, observed 18th to 23rd day, 0 = non-treated, 100 = complete kill.
Type: in vivo, Abutilon theophrasti MEDIC.
For `CC(Oc1ccc(F)cc1)C(=O)N(C)C(c1cnccc1C(F)(F)F)C(C)C` (mixture of isomers) [I-133], the “Growth controlling degree (%) Velvetleaf” value was 70%.

What follows are molecules tested on rice (assay: Test Example 1: foliage treatment, upland pot test). Settings: crop, active ingredient 500 g/ha, observed 18th to 23rd day, 0 = non-treated, 100 = complete kill.
Type: in vivo, Oryza sativa L.
Summary of the method: as §1
With `CC(Oc1ccc(F)cc1)C(=O)N(C)C(c1cnccc1C(F)(F)F)C(C)C` (mixture of isomers) [I-133] the “Growth controlling degree (%) Rice” value was 40%.

These molecules were tested on wheat (assay: Test Example 1: foliage treatment, upland pot test). Settings: crop, active ingredient 500 g/ha, observed 18th to 23rd day, 0 = non-treated, 100 = complete kill.
Type: in vivo, Triticum spp.
Excerpt: Upland field soil was put into a 1/170,000 ha pot, and seed of various plants were sown. Then, when the plants reached predetermined leaf stages ((1) barnyardgrass: 1.3 to 2.8 leaf stages, (2) crabgrass: 1.0 to 2.8 leaf stages, (3) green foxtail: 1.3 to 2.6 leaf stages, (4) redroot pigweed: 0.1 to 1.2 leaf stages, (5) prickly sida: 0.1 to 1.2 leaf stages, (6) velvetleaf: 0.1 to 1.2 leaf stages, (7) tall morningglory: 0.1 to 1.5 leaf stages, (8) rice: 1.2 to 2.6 leaf stages, (9) wheat: 1.3 to 2.4 leaf stages, (10) corn, 2.1 to 3.2 leaf stages, (11) soybean: 0.1 to 0.4 leaf stage), a wettable powder or emulsifiable concentrate having the compound of the present invention formulated in accordance with a usual formulation method, was weighed so that the active ingredient would be a predetermined amount, and diluted with water in an amount of 500 L/ha. To the diluted solution, 0.1% (v/v) of agricultural spreader was added. The herbicide thus adjusted was applied by a small size sprayer for foliage treatment. On the 18th to 23rd days after the application of the herbicide, the growth of the respective plants was visually observed, and the herbicidal effects were evaluated by the growth controlling degrees (%) ranging from 0 (equivalent to the non-treated plot) to 100 (complete kill), whereby the results shown in Table 3, were obtained.
For `CC(Oc1ccc(F)cc1)C(=O)N(C)C(c1cnccc1C(F)(F)F)C(C)C` (mixture of isomers) [I-133], the “Growth controlling degree (%) wheat” value was 40%.

The molecules below were run on corn (assay: Test Example 1: foliage treatment, upland pot test). Settings: crop, active ingredient 500 g/ha, observed 18th to 23rd day, 0 = non-treated, 100 = complete kill.
Type: in vivo, Zea mays L.
Summary of the method: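 In this upland pot foliage test, corn plants at 2.1 to 3.2 leaf stages were sprayed by a small size sprayer. The spray was a conventionally formulated wettable powder or emulsifiable concentrate weighed to a set active ingredient amount, diluted in water at 500 L/ha, plus 0.1% (v/v) agricultural spreader. Visual assessment on days 18 to 23 gave growth controlling degree (%), where 0 equals untreated and 100 means complete kill.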
In the case of `CC(Oc1ccc(F)cc1)C(=O)N(C)C(c1cnccc1C(F)(F)F)C(C)C` (mixture of isomers) [I-133], the “Growth controlling degree (%) Corn” value is reported as 80%.

These molecules were tested on soybean (assay: Test Example 1: foliage treatment, upland pot test). Settings: crop, active ingredient 500 g/ha, observed 18th to 23rd day, 0 = non-treated, 100 = complete kill.
Type: in vivo, Glycine max Merr.
Summary of the method: as §1
With `CC(Oc1ccc(F)cc1)C(=O)N(C)C(c1cnccc1C(F)(F)F)C(C)C` (mixture of isomers) [I-133] the “Growth controlling degree (%) Soybean” value was 80%.

These molecules were tested on barnyardgrass (assay: Test Example 2: soil surface treatment, upland pot test). Settings: active ingredient 500 g/ha, observed 20th to 28th day.
Type: in vivo, Echinochloa crus-galli L.
Summary of the method: (§2)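 A pre-emergence soil application: formulated compound at a predetermined active-ingredient dose, diluted in water to 1,500 L/ha, sprayed on upland soil a day after seeding in 1/170,000 ha pots; growth control rated visually, 0 (untreated level) to 100 (kill), at 20–28 days.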
In the case of `CC(Oc1ccc(F)cc1)C(=O)N(C)C(c1cnccc1C(F)(F)F)C(C)C` (mixture of isomers) [I-133], the “Growth controlling degree (%) Barnyardgrass” value is reported as 100%.

These molecules were tested on crabgrass in the same assay as above. Settings: active ingredient 500 g/ha, observed 20th to 28th day.
Type: in vivo, Digitaria sanguinalis L.
Summary of the method: as §2
For `CC(Oc1ccc(F)cc1)C(=O)N(C)C(c1cnccc1C(F)(F)F)C(C)C` (mixture of isomers) [I-133], the “Growth controlling degree (%) Crabgrass” value was 98%.

These molecules were tested on green foxtail in the same assay as above. Settings: active ingredient 500 g/ha, observed 20th to 28th day.
Type: in vivo, Setaria viridis L.
Summary of the method: as §2
With `CC(Oc1ccc(F)cc1)C(=O)N(C)C(c1cnccc1C(F)(F)F)C(C)C` (mixture of isomers) [I-133] the “Growth controlling degree (%) Green foxtail” value was 100%.

What follows are molecules tested on redroot pigweed in the same assay as above. Settings: active ingredient 500 g/ha, observed 20th to 28th day.
Type: in vivo, Amaranthus retroflexus L.
Summary of the method: as §2
With `CC(Oc1ccc(F)cc1)C(=O)N(C)C(c1cnccc1C(F)(F)F)C(C)C` (mixture of isomers) [I-133] the “Growth controlling degree (%) Redroot pigweed” value was 50%.

What follows are molecules tested on prickly sida in the same assay as above. Settings: active ingredient 500 g/ha, observed 20th to 28th day.
Type: in vivo, Sida spinosa L.
Summary of the method: as §2
`CC(Oc1ccc(F)cc1)C(=O)N(C)C(c1cnccc1C(F)(F)F)C(C)C` (mixture of isomers) [I-133] was tested, and the “Growth controlling degree (%) Prickly sida” value was 80%.

The molecules below were run on velvetleaf in the same assay as above. Settings: active ingredient 500 g/ha, observed 20th to 28th day.
Type: in vivo, Abutilon theophrasti MEDIC.
Summary of the method: as §2
`CC(Oc1ccc(F)cc1)C(=O)N(C)C(c1cnccc1C(F)(F)F)C(C)C` (mixture of isomers) [I-133] was tested, and the “Growth controlling degree (%) Velvetleaf” value was 50%.

The molecules below were run on rice in the same assay as above. Settings: active ingredient 500 g/ha, observed 20th to 28th day.
Type: in vivo, Oryza sativa L.
Summary of the method: as §2
With `CC(Oc1ccc(F)cc1)C(=O)N(C)C(c1cnccc1C(F)(F)F)C(C)C` (mixture of isomers) [I-133] the “Growth controlling degree (%) Rice” value was 70%.

The molecules below were run on wheat in the same assay as above. Settings: active ingredient 500 g/ha, observed 20th to 28th day.
Type: in vivo, Triticum spp.
Summary of the method: as §2
`CC(Oc1ccc(F)cc1)C(=O)N(C)C(c1cnccc1C(F)(F)F)C(C)C` (mixture of isomers) [I-133] was tested, and the “Growth controlling degree (%) wheat” value was 40%.

Each molecule was assayed on corn in the same assay as above. Settings: active ingredient 500 g/ha, observed 20th to 28th day.
Type: in vivo, Zea mays L.
Summary of the method: as §2
For `CC(Oc1ccc(F)cc1)C(=O)N(C)C(c1cnccc1C(F)(F)F)C(C)C` (mixture of isomers) [I-133], the “Growth controlling degree (%) Corn” value was 50%.

Each molecule was assayed on soybean in the same assay as above. Settings: active ingredient 500 g/ha, observed 20th to 28th day.
Type: in vivo, Glycine max Merr.
Summary of the method: as §2
For `CC(Oc1ccc(F)cc1)C(=O)N(C)C(c1cnccc1C(F)(F)F)C(C)C` (mixture of isomers) [I-133], the “Growth controlling degree (%) Soyabean” value was 30%.

Each molecule was assayed on barnyardgrass (assay: Test Example 3: paddy pot test, application under submerged conditions). Settings: active ingredient 250 g/ha; submerged application at 0.5 leaf stage; visually observed 14 days after application; 0 = non-treated, 100 = complete kill.
Type: in vivo, Echinochloa crus-galli L.
Summary of the method: (§3)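 Visual growth-control rating (0 = untreated, 100 = complete kill) 14 days after treatment. The formulated compound, as a diluted wettable powder or emulsifiable concentrate, went into 3–4 cm flood water at a predetermined active-ingredient dose once the weeds reached 0.5 leaf stage (wapato: primary leaf stage).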
With `CC(Oc1ccc(F)cc1)C(=O)N(C)C(c1cnccc1C(F)(F)F)C(C)C` (mixture of isomers) [I-133] the “Growth controlling degree (%) Barnyardgrass” value was 100%.

What follows are molecules tested on japanese bulrush in the same assay as above. Settings: active ingredient 250 g/ha; submerged application at 0.5 leaf stage; visually observed 14 days after application; 0 = non-treated, 100 = complete kill.
Type: in vivo, Scirpus juncoides
Summary of the method: as §3
In the case of `CC(Oc1ccc(F)cc1)C(=O)N(C)C(c1cnccc1C(F)(F)F)C(C)C` (mixture of isomers) [I-133], the “Growth controlling degree (%) Japanese bulrush” value is reported as 95%.

These molecules were tested on rice (var. Nihonbare) (assay: Test Example 3: paddy pot test, transplanted rice). Settings: active ingredient 250 g/ha, applied 4th day after transplantation, visually observed 21st day after application, 0 = non-treated, 100 = complete kill.
Type: in vivo, Oryza sativa L.
Summary of the method: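 Rice (var. Nihonbare) at 2 leaf stage transplanted 3 cm deep into puddled paddy soil under 3–4 cm flooding; on day 4 after transplanting, diluted wettable powder or emulsifiable concentrate applied by pipette under submerged conditions at a set active-ingredient dose. Growth scored visually 21 days after application, 0 (untreated) to 100 (complete kill) %.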
In the case of `CC(Oc1ccc(F)cc1)C(=O)N(C)C(c1cnccc1C(F)(F)F)C(C)C` (mixture of isomers) [I-133], the “Growth controlling degree (%) Rice” value is reported as 10%.
